In the assay the target is T1, cholesteryl ester transfer protein (Homo sapiens, UniProt P11597).
T1 construct: As a source of cholesteryl ester transfer protein, plasma from healthy humans was used; from tissue; host or cells: plasma from healthy humans
T1 sequence (P11597 18-493): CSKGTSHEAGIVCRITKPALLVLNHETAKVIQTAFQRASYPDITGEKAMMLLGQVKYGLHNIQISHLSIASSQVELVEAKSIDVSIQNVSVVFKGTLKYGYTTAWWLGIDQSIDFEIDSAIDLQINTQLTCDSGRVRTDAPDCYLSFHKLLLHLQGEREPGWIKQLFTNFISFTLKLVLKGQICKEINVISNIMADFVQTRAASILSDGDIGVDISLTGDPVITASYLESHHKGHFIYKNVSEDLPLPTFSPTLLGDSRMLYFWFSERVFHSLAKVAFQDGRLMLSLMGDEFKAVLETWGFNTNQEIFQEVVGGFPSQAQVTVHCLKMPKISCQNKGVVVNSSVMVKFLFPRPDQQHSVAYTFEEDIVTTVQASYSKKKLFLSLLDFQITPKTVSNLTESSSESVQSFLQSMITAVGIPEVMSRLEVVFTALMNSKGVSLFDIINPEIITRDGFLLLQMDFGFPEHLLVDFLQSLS
In words: In vitro test for the ability to inhibit cholesteryl ester transfer. The assay is classed as biochemical. The settings on record: [3H]-cholesteryl oleate transfer from rHDL-agarose to LDL; human plasma as CETP source; 37° C.; 16-10000 nM, duplicate. The gist of the method:
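Human plasma served as the CETP source, with human LDL (0.25 mg/ml) as acceptor and agarose-immobilised recombinant HDL carrying [3H]-cholesteryl oleate (0.25 mg/ml) as donor, at 37 °C. Compounds were run in duplicate at 16–10000 nM. Transferred radioactivity in the supernatant was counted by beta detection, and IC50 was fitted from the fraction of label transferred to LDL.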

On to `COc1cc(F)c(C(C)=O)cc1C1=C(CN2C(=O)O[C@H](c3cc(C(F)(F)F)cc(C(F)(F)F)c3)[C@@H]2C)CC(C)(C)CC1` [Compound 184, (4S,5R)-3-((2-(5-acetyl-4-fluoro-2-methoxyphenyl)-5,5-dimethylcyclohex-1-enyl)methyl)-5-(3,5-bis(trifluoromethyl)phenyl)-4-methyloxazolidin-2-one], for which it took 20 nM to reach half-maximal inhibition (IC50). In the case of `COc1ccc(C(C)(C)O)cc1C1=C(CN2C(=O)O[C@H](c3cc(C(F)(F)F)cc(C(F)(F)F)c3)[C@@H]2C)CCCC1` [Compound 82, (4S,5R)-5-(3,5-bis(trifluoromethyl)phenyl)-3-((2-(5-(2-hydroxypropan-2-yl)-2-methoxyphenyl)cyclohex-1-enyl)methyl)-4-methyloxazolidin-2-one] it was 80 nM.

`COc1cc(F)c(C(C)C)cc1C1=C(CN2C(=O)O[C@H](c3cc(C(F)(F)F)cc(C(F)(F)F)c3)[C@@H]2C)CC(C(C)(C)C)CC1` (stereo partly drawn) [Compound 101, (4S,5R)-5-(3,5-bis(trifluoromethyl)phenyl)-3-((5-tert-butyl-2-(4-fluoro-5-isopropyl-2-methoxyphenyl)cyclohex-1-enyl)methyl)-4-methyloxazolidin-2-one] gave a 50% inhibitory concentration (IC50) of 70 nM. In the case of `COc1cc(F)c(C(C)C)cc1C1=C(CN2C(=O)O[C@H](c3cc(C(F)(F)F)cc(C(F)(F)F)c3)[C@@H]2C)CN(C)CC1` [Compound 231, (4S,5R)-5-(3,5-bis(trifluoromethyl)phenyl)-3-((4-(4-fluoro-5-isopropyl-2-methoxyphenyl)-1-methyl-1,2,5,6-tetrahydropyridin-3-yl)methyl)-4-methyloxazolidin-2-one] it was 700 nM.

In the case of `COc1ncc(CC(C)(C)C(=O)O)cc1C1=C(CN2C(=O)O[C@H](c3cc(C(F)(F)F)cc(C(F)(F)F)c3)[C@@H]2C)CC(C)(C)CC1` [Compound 350, 3-(5-(2-(((4S,5R)-5-(3,5-bis(trifluoromethyl)phenyl)-4-methyl-2-oxooxazolidin-3-yl)methyl)-4,4-dimethylcyclohex-1-enyl)-6-methoxypyridin-3-yl)-2,2-dimethylpropanoic acid], the IC50 was 51 nM. With `COc1cc(F)c(CC(C)(C)C(N)=O)cc1C1=C(CN2C(=O)O[C@H](c3cc(C(F)(F)F)cc(C(F)(F)F)c3)[C@@H]2C)CC(C)(C)CC1` [Compound 329, 3-(5-(2-(((4S,5R)-5-(3,5-bis(trifluoromethyl)phenyl)-4-methyl-2-oxooxazolidin-3-yl)methyl)-4,4-dimethylcyclohex-1-enyl)-2-fluoro-4-methoxyphenyl)-2,2-dimethylpropanamide], the half-inhibitory concentration (IC50) came to 9 nM. In the case of `COc1cc(C)c(N(C)S(=O)(=O)C(F)(F)F)cc1C1=C(CN2C(=O)O[C@H](c3cc(C(F)(F)F)cc(C(F)(F)F)c3)[C@@H]2C)CC(C)(C)CC1` [Compound 251, N-(5-(2-(((4S,5R)-5-(3,5-bis(trifluoromethyl)phenyl)-4-methyl-2-oxooxazolidin-3-yl)methyl)-4,4-dimethylcyclohex-1-enyl)-4-methoxy-2-methylphenyl)trifluoro-N-methylmethanesulfonamide] it was 690 nM; in that of `COc1ccc(C=O)cc1C1=C(CN2C(=O)O[C@H](c3cc(C(F)(F)F)cc(C(F)(F)F)c3)[C@@H]2C)CCCC1` [Compound 79, 3-(2-(((4S,5R)-5-(3,5-bis(trifluoromethyl)phenyl)-4-methyl-2-oxooxazolidin-3-yl)methyl)cyclohex-1-enyl)-4-methoxybenzaldehyde], 890 nM. `COc1cc(C(F)(F)F)c(N(C)C(C)=O)cc1C1=C(CN2C(=O)O[C@H](c3cc(C(F)(F)F)cc(C(F)(F)F)c3)[C@@H]2C)CC(C)(C)CC1` [Compound 210, N-(5-(2-(((4S,5R)-5-(3,5-bis(trifluoromethyl)phenyl)-4-methyl-2-oxooxazolidin-3-yl)methyl)-4,4-dimethylcyclohex-1-enyl)-4-methoxy-2-(trifluoromethyl)phenyl)-N-methylacetamide] gave a concentration for half-maximal inhibition (IC50) of 8 nM.

Broadly, the IC50 is the point on the concentration scale where inhibition reaches its midpoint.

Values taken from US9371294B2, “Cycloalkenyl aryl derivatives for CETP inhibitor” (CHONG KUN DANG PHARMACEUTICAL CORP., priority 2011, dated 2016).
